Experimental data reported in the supplement of paper PMC10307832.

Assays:
Test in all cases: relative viability (nuclei count vs DMSO), 5 days (fraction); higher = more cells survive
TGX 221 + Pemetrexed = compound: CC1=CN2C(=O)C=C(N=C2C(=C1)C(C)NC3=CC=CC=C3)N4CCOCC4 [TGX 221] + Nc1nc2[nH]cc(CCc3ccc(C(=O)N[C@@H](CCC(=O)O)C(=O)O)cc3)c2c(=O)[nH]1 [Pemetrexed] (partner 0.2 µM)
Method in brief: (§1)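 Lung cancer cell lines were seeded in 1536-well plates and dosed by pin tool the next day, with either a single drug or a fixed anchor-drug dose combined with five library-drug doses (not always all listed) spaced in √10 steps. Five days later, one step fixed the cells and stained their nuclei (final 0.05% Triton X-100, 1% formaldehyde, 1 ug/ml Hoechst), and nuclei were counted on 4× images. Relative viability is the nuclei count in treated wells divided by the count in vehicle wells, and each value is the median of duplicate plates.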

[1] = compound: O=C(CCCCCCNC(=O)c1cnc(N(c2ccccc2)c2ccccc2)nc1)NO [Ricolinostat] + CC(C)C[C@H](NC(=O)[C@H](Cc1ccccc1)NC(=O)c1cnccn1)B(O)O [Bortezomib] (partner 0.002 µM)
Method in brief: as §1

Ricolinostat + Lapatinib = compound: O=C(CCCCCCNC(=O)c1cnc(N(c2ccccc2)c2ccccc2)nc1)NO [Ricolinostat] + CS(=O)(=O)CCNCc1ccc(-c2ccc3ncnc(Nc4ccc(OCc5cccc(F)c5)c(Cl)c4)c3c2)o1 [Lapatinib] (partner 2 µM)
Method in brief: as §1

[2] = compound: O=C(CCCCCCNC(=O)c1cnc(N(c2ccccc2)c2ccccc2)nc1)NO [Ricolinostat] + Cc1cc(Nc2cc(N3CCN(C)CC3)nc(Sc3ccc(NC(=O)C4CC4)cc3)n2)n[nH]1 [Tozasertib] (partner 0.1 µM)
Method in brief: as §1

Cell Line | relative viability (TGX 221 + Pemetrexed; first compound 0.08 µM) | relative viability (TGX 221 + Pemetrexed; first compound 0.253 µM) | relative viability (TGX 221 + Pemetrexed; first compound 0.8 µM) | relative viability (TGX 221 + Pemetrexed; first compound 2.53 µM) | relative viability (TGX 221 + Pemetrexed; first compound 8 µM) | relative viability ([1]; first compound 0.08 µM) | relative viability ([1]; first compound 0.253 µM) | relative viability ([1]; first compound 0.8 µM) | relative viability ([1]; first compound 2.53 µM) | relative viability (Ricolinostat + Lapatinib; first compound 0.08 µM) | relative viability (Ricolinostat + Lapatinib; first compound 0.253 µM) | relative viability (Ricolinostat + Lapatinib; first compound 0.8 µM) | relative viability (Ricolinostat + Lapatinib; first compound 2.53 µM) | relative viability ([2]; first compound 0.08 µM) | relative viability ([2]; first compound 0.253 µM) | relative viability ([2]; first compound 0.8 µM) | relative viability ([2]; first compound 2.53 µM)
201T | 0.324 | 0.373 | 0.318 | 0.351 | 0.374 | 0.989 | 1.11 | 1.09 | 1.12 | 0.921 | 1.01 | 0.95 | 1.07 | 0.909 | 0.932 | 0.829 | 0.612
A549 |  |  |  |  |  |  |  |  |  | 0.977 | 0.887 | 0.859 | 0.72 |  |  |  | 
A-427 | 0.992 | 0.987 | 0.963 | 0.989 | 0.953 | 0.89 | 0.998 | 0.933 | 0.736 | 0.892 | 1.01 | 0.897 | 1.02 |  | 0.198 | 0.182 | 0.174
ABC-1 |  |  |  |  |  | 0.311 | 0.302 | 0.25 | 0.264 | 1.27 | 1.12 | 1.3 | 1.65 | 0.215 | 0.203 | 0.229 | 0.18
BEN | 0.728 | 0.715 | 0.727 | 0.645 | 0.775 | 0.781 | 0.694 | 0.567 | 0.609 | 0.613 | 0.643 | 0.588 | 0.423 | 0.539 | 0.558 | 0.534 | 0.517
CAL-12T | 1.12 | 0.976 | 1.21 | 1.25 | 1.17 | 0.814 | 0.833 | 0.816 | 0.937 | 0.326 | 0.751 | 0.628 | 0.668 | 0.326 | 0.261 | 0.284 | 0.196
COR-L23 | 0.22 | 0.198 | 0.186 | 0.218 | 0.189 | 0.919 | 0.894 | 0.951 | 0.464 | 1.05 | 0.835 | 0.8 | 0.588 | 0.207 | 0.193 | 0.162 | 0.121
COR-L 105 | 1.1 | 1.08 | 0.857 | 1 | 0.81 | 0.844 | 0.885 | 0.946 | 0.993 | 0.342 | 0.396 | 0.399 | 0.384 |  | 0.325 | 0.3 | 0.352
Calu-6 |  |  |  |  |  | 1.08 | 1.01 | 0.982 | 0.957 | 0.926 | 1.03 | 1.01 | 0.785 |  |  |  | 
ChaGo-K-1 | 0.264 | 0.259 | 0.236 | 0.231 | 0.254 | 1 | 1.18 | 0.959 | 0.9 |  |  |  |  | 0.201 | 0.234 | 0.224 | 0.226
EBC-1 |  |  |  |  |  | 0.49 | 0.458 | 0.386 | 0.263 | 0.206 | 0.207 | 0.221 | 0.215 |  |  |  | 
EKVX | 0.404 | 0.356 | 0.34 | 0.375 | 0.395 |  | 1.03 | 1.16 | 0.83 |  | 0.205 | 0.205 | 0.19 | 0.354 | 0.373 |  | 0.384
EMC-BAC-2 | 0.468 | 0.43 | 0.428 | 0.464 | 0.463 | 0.957 | 1.12 | 1.06 | 0.941 | 0.784 | 0.895 | 0.894 | 0.676 | 0.318 | 0.234 | 0.204 | 0.206
EPLC-272H | 0.392 | 0.279 | 0.353 | 0.295 | 0.303 |  | 0.751 | 0.848 | 0.871 |  | 0.978 | 1.03 | 0.884 | 0.354 | 0.192 | 0.333 | 0.317
H3255 | 0.54 | 0.71 | 0.487 | 0.562 | 0.539 | 0.516 | 0.727 | 0.678 | 0.617 | 0.189 | 0.3 | 0.2 | 0.207 | 0.566 | 0.623 | 0.61 | 0.558
HARA | 0.216 | 0.234 | 0.258 | 0.3 | 0.221 | 1.05 | 1.02 | 1.1 | 0.638 | 0.503 | 0.676 | 0.659 | 0.411 | 0.106 | 0.16 | 0.076 | 0.0848
HCC-15 | 0.212 | 0.237 | 0.203 | 0.209 | 0.203 | 0.897 | 0.987 | 0.983 | 0.925 | 0.729 | 0.808 | 0.854 | 0.899 | 0.349 | 0.35 | 0.233 | 0.233
HCC-44 | 0.681 | 0.646 | 0.655 | 0.643 | 0.668 | 0.904 | 0.887 | 0.904 | 0.663 | 1.04 | 0.976 | 0.922 | 0.713 | 1.01 | 0.984 | 0.862 | 0.537
